Measurements reported in ChEMBL document CHEMBL5291721, “A preclinical secondary pharmacology resource illuminates target-adverse drug reaction associations of marketed drugs” (Nat Commun, 2023).

Columns and labels:
Bile salt export pump = Bile salt export pump (Homo sapiens, UniProt O95342); assay type: functional
Acetylcholinesterase = Acetylcholinesterase (Homo sapiens, UniProt P22303); assay type: functional
[1] = target: T1, Muscarinic acetylcholine receptor M2 (Homo sapiens, UniProt P08172)
T1 sequence (P08172 whole entry): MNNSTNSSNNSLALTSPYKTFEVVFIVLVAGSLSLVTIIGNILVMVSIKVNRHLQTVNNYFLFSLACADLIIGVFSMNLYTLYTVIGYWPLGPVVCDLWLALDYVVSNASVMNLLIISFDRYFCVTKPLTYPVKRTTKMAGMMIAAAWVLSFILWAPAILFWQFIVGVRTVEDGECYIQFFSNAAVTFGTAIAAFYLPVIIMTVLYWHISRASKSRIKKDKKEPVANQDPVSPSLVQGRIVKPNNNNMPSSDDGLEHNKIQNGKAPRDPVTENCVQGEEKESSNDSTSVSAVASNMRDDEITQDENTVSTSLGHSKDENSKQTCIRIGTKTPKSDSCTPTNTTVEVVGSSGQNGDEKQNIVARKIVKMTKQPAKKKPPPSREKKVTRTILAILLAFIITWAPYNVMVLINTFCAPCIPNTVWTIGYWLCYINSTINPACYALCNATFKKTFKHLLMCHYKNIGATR

D(1A) dopamine receptor = D(1A) dopamine receptor (Homo sapiens, UniProt P21728)
D(3) dopamine receptor = D(3) dopamine receptor (Homo sapiens, UniProt P35462)
Prothrombin = Prothrombin (Homo sapiens, UniProt P00734); assay type: functional
Histamine H3 receptor = Histamine H3 receptor (Homo sapiens, UniProt Q9Y5N1)
[2] = target: T2, 5-hydroxytryptamine receptor 1A (Homo sapiens, UniProt P08908)
T2 sequence (P08908 whole entry): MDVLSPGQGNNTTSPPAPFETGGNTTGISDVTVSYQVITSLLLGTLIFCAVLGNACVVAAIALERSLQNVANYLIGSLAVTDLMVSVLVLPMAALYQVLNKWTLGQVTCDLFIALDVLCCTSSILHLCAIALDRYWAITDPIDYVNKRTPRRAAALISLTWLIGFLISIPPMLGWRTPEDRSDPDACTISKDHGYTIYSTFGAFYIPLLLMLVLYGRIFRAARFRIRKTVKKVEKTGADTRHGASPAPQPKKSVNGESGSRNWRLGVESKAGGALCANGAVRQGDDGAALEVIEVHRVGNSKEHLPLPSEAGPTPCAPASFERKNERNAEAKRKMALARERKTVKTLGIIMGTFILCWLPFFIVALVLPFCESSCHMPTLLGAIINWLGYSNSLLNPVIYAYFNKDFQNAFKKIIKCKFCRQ

[3] = target: 5-hydroxytryptamine receptor 2B (Homo sapiens, UniProt P41595); assay type: functional, cell-based
[4] = target: Voltage-gated inwardly rectifying potassium channel KCNH2 (Homo sapiens, UniProt Q12809); assay type: functional; conditions: read-out: AC50
[5] = target: T3, Amine oxidase [flavin-containing] A (Homo sapiens, UniProt P21397); assay type: functional
T3 sequence (P21397 whole entry): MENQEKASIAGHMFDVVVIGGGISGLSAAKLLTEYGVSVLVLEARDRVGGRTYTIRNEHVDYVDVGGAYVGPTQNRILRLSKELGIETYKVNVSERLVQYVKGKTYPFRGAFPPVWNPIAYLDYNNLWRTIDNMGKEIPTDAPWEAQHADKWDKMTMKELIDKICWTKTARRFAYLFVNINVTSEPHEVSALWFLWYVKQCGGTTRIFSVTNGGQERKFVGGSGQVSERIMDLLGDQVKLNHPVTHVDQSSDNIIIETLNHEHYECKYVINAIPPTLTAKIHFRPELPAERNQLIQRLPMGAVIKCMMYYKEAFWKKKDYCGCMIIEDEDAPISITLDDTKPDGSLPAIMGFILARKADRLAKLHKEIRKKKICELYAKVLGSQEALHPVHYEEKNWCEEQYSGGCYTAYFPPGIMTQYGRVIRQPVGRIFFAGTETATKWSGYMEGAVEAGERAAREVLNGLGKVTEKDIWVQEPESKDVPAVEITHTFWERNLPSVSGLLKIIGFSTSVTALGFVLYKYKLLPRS

Mu-type opioid receptor = Mu-type opioid receptor (Homo sapiens, UniProt P35372)
[6] = target: cGMP-inhibited 3',5'-cyclic phosphodiesterase 3A (Homo sapiens, UniProt Q14432); assay type: functional
[7] = target: 3',5'-cyclic-AMP phosphodiesterase 4A (Homo sapiens, UniProt P27815); assay type: functional
[8] = target: T4, Prostaglandin G/H synthase 1 (Homo sapiens, UniProt P23219); assay type: functional
[9] = target: T4, Prostaglandin G/H synthase 1; assay type: functional; remark: listed apart in the source
[10] = target: Sodium-dependent noradrenaline transporter (Homo sapiens, UniProt P23975)
[11] = target: Sodium-dependent dopamine transporter (Homo sapiens, UniProt Q01959)
Thromboxane A2 receptor [12] = target: T5, Thromboxane A2 receptor (Homo sapiens, UniProt P21731); assay type: functional, cell-based
T5 sequence (P21731 whole entry): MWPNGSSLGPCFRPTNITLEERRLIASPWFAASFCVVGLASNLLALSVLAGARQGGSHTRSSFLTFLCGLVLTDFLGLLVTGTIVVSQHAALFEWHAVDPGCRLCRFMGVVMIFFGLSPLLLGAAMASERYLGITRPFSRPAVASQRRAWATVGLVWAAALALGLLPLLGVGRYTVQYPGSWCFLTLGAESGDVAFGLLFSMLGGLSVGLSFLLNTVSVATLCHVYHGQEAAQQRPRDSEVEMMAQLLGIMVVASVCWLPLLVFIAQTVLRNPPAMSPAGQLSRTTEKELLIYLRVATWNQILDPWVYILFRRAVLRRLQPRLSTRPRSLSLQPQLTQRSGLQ

Thromboxane A2 receptor [13] = target: T5, Thromboxane A2 receptor; assay type: functional, cell-based; remark: listed apart in the source
Also: assay procedure not described here.

T4 sequence (P23219 whole entry): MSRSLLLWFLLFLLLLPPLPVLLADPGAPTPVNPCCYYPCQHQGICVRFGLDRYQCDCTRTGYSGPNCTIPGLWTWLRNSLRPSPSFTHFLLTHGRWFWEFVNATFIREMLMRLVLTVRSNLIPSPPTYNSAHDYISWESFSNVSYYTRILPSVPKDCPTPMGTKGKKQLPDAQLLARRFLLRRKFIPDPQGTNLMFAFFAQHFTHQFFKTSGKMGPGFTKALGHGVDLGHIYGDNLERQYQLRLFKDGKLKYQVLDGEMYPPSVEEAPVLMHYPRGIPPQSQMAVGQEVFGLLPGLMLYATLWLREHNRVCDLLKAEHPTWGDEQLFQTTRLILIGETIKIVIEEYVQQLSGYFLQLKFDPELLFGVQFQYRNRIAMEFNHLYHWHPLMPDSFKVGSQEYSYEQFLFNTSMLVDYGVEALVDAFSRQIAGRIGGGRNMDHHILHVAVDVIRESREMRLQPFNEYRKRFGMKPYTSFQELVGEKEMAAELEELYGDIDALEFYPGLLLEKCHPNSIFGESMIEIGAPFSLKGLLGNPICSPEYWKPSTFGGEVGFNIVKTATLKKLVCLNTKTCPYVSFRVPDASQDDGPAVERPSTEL
Chain of Acetylcholinesterase (P22303 whole entry): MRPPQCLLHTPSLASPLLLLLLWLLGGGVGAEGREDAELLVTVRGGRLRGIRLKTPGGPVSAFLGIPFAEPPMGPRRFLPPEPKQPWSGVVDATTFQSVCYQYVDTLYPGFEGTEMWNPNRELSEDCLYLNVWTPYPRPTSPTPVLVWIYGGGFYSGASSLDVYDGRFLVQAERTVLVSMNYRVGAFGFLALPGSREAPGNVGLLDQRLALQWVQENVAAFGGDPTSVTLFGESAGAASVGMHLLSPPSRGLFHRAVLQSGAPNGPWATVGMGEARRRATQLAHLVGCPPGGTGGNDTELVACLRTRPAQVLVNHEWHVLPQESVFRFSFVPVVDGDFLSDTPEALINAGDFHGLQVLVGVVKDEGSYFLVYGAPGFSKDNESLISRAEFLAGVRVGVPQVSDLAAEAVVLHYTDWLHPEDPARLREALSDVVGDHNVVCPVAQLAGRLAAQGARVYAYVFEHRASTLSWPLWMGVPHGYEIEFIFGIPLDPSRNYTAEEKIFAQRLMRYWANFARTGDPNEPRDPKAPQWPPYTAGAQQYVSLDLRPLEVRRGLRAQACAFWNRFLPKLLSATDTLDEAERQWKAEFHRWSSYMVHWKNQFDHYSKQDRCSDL
Chain of D(3) dopamine receptor (P35462 whole entry): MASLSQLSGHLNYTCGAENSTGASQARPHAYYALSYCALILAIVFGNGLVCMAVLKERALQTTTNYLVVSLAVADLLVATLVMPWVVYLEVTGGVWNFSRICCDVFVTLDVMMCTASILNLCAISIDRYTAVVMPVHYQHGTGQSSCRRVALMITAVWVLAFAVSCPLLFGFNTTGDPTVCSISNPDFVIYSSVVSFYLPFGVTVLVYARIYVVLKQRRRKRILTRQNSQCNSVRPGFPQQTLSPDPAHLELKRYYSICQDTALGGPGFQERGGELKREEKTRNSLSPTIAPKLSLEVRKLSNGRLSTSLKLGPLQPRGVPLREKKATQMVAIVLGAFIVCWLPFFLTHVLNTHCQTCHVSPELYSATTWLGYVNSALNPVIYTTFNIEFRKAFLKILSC
Chain of cGMP-inhibited 3',5'-cyclic phosphodiesterase 3A (Q14432 whole entry): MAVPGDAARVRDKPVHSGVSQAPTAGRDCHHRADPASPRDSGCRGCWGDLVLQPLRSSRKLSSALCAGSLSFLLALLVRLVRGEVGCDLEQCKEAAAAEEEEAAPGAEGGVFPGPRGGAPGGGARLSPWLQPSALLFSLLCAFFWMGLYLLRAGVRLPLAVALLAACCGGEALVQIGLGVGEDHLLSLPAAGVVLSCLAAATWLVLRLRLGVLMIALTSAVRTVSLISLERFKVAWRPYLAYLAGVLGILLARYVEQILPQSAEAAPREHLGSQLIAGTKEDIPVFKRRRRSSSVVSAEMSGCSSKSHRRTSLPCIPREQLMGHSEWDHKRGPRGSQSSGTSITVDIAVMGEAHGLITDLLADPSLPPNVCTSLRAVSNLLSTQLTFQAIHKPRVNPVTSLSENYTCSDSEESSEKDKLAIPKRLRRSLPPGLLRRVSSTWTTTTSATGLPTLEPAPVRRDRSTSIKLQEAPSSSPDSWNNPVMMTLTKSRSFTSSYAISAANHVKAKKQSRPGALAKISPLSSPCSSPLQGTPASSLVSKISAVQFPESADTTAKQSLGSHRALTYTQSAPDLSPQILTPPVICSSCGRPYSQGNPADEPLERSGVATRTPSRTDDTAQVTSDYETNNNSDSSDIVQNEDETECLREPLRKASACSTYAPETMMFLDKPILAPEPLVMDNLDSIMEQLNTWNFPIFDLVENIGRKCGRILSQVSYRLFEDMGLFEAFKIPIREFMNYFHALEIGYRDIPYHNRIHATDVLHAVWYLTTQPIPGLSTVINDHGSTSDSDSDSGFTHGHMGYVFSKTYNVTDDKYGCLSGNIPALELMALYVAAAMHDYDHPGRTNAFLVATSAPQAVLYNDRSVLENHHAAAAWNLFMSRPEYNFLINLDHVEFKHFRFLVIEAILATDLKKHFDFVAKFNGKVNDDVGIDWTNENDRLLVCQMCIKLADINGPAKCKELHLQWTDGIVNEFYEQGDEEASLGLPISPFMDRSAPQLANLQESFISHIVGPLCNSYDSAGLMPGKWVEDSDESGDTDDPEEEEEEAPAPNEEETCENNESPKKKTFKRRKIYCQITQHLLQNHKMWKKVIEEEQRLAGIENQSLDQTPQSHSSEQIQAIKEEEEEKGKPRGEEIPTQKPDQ
Chain of Histamine H3 receptor (Q9Y5N1 whole entry): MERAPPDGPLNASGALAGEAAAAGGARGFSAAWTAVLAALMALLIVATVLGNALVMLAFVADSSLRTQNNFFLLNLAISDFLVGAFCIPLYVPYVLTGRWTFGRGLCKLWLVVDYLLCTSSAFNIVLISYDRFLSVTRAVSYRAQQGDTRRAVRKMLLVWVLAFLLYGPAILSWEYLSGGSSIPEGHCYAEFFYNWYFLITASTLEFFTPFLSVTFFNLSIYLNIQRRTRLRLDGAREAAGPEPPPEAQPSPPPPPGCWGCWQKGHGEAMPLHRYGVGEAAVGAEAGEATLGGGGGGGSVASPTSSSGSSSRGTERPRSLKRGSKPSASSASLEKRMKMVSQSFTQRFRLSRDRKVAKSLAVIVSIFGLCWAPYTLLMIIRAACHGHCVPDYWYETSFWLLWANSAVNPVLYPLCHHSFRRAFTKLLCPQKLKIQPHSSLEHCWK
Chain of Sodium-dependent noradrenaline transporter (P23975 whole entry): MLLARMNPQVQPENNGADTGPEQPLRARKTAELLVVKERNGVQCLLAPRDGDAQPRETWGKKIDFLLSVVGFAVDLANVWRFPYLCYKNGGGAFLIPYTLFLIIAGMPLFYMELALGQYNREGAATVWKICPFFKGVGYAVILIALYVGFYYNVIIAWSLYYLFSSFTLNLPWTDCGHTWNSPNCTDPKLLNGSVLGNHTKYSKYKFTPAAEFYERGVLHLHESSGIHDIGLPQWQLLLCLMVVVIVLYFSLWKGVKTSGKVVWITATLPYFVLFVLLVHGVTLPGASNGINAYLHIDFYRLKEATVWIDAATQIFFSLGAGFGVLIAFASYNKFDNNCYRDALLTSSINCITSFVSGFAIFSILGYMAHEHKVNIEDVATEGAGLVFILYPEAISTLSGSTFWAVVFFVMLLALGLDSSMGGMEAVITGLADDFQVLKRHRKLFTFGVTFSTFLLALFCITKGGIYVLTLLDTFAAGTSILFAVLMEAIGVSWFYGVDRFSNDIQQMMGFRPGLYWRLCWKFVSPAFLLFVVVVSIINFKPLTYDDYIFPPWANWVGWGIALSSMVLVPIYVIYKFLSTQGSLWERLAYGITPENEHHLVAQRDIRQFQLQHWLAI
Chain of Voltage-gated inwardly rectifying potassium channel KCNH2 (Q12809 whole entry): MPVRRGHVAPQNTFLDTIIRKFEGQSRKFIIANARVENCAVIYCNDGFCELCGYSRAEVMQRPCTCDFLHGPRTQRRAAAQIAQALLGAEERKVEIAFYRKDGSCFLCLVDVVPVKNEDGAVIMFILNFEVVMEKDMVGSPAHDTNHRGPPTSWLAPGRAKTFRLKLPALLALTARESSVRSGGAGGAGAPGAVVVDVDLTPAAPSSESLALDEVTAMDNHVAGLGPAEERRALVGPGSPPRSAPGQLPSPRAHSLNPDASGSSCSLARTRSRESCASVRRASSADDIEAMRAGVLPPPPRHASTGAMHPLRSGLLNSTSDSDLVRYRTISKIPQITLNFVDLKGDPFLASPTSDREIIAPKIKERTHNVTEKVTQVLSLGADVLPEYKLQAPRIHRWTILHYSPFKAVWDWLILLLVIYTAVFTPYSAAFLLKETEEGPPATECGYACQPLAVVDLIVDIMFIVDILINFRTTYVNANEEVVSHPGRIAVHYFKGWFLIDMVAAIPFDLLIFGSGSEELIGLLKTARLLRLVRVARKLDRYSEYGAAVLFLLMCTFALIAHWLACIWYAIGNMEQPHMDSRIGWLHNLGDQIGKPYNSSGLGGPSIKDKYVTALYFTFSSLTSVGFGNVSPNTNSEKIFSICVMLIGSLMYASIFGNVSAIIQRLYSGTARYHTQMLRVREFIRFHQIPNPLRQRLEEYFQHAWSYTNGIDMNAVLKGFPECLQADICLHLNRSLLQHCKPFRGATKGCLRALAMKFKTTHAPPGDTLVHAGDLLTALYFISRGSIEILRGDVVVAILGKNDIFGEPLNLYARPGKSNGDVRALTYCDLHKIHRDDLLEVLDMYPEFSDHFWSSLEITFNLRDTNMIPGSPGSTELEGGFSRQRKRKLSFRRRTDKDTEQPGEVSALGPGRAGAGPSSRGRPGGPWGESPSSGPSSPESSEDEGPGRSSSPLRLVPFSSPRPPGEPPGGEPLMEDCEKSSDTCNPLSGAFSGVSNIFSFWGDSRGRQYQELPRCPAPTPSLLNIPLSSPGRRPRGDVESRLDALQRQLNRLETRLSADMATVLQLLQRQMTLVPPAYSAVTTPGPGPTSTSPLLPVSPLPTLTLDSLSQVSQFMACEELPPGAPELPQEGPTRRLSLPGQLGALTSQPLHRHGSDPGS

## CC1(C)O[C@@H]2[C@@H](CO[C@@]3(COS(N)(=O)=O)OC(C)(C)O[C@@H]23)O1 [TOPIRAMATE]
Bile salt export pump
  AC50: > 300 µM
Acetylcholinesterase
  AC50: > 30 µM
[1]
  AC50: > 30 µM
D(1A) dopamine receptor
  AC50: > 30 µM
D(3) dopamine receptor
  AC50: > 30 µM
Prothrombin
  AC50: > 30 µM
Histamine H3 receptor
  AC50: > 30 µM
[2]
  AC50: > 30 µM
[3]
  AC50: > 30 µM
[4]
  AC50: > 30 µM
[5]
  AC50: > 30 µM
Mu-type opioid receptor
  AC50: > 30 µM
[6]
  AC50: > 30 µM
[7]
  AC50: > 30 µM
[8]
  AC50: > 30 µM
[9]
  AC50: > 30 µM
[10]
  AC50: > 30 µM
[11]
  AC50: > 30 µM
Thromboxane A2 receptor [12]
  AC50: > 30 µM
Thromboxane A2 receptor [13]
  AC50: > 30 µM
